Where two headings read alike, the source gives them in different places.
What was measured:
[1] = tested on: mice; test: Spontaneous activity (S. Irwin scheme); type: in vivo; conditions: Mus musculus, ip, read-out: Decrease of spontaneous activity ED50
From the text: (§1) As stated before, the compounds of the invention have CNS depressant utility. More exactly, the compounds of Examples 1,2,3,5-10, 14, 31(42), 32(56), 34, 35 and 45(55) are useful as sedatives and hypnotics. These pharmacological properties were ascertained by following the operative scheme and the manipulation procedure described by S. Irwin in Psychopharmacologia (Berl.), 13, 222, 1968. Especially, there were studied the biological effects of the compounds on two of the parameters which are closely related to the above properties, namely the "spontaneous activity" and the "righting reflex". The effects of the compounds on these two parameters were expressed as ED50 values ie., the amount of compound tested which reduces the spontaneous activity and righting reflex scores of test animals to 50% of those of the controls. The scores are the same as those reported by S. Irwin in the cited paper. For each compound it was also determined the minimal dosis which produces complete hypnosis of the test animals (MHD).
(§2) The obtained results are summarized in the following table, which also reports the toxicities of the tested substances, expressed as LD50 values. For comparison purposes, also the activity of two known compounds was determined. The known compounds are 1-methyl-3,5-diphenyl-1,2,4-triazole (Compound A, Atkinson et al. Journ. Chem. Soc., 1954, 141, 1954) and 1-methyl-3-phenyl-5-(p-chlorophenyl)-1,2,4-triazole (Compound B, Huisgen et al., Journ. Org. Chem., 24, 892, 1959).

[2] = Toxicity (LD50); conditions: mouse, in vivo, ip
Protocol: as §2

[3] = tested on: mice; test: Righting reflex (S. Irwin scheme); type: in vivo; conditions: Mus musculus, ip, read-out: Impairment of righting reflex ED50
From the text: as §1, §2

[4] = tested on: mice; test: Minimal dosis which produces complete hypnosis (MHD); type: in vivo; conditions: Mus musculus, ip, read-out: Minimal hypnotic dosis
From the text: as §1

[5] = tested on: rats; test: Secondary response avoidance test (G. Maffii), antianxiety effect; type: in vivo; conditions: 20 mg/kg i.p.
Protocol: The compounds of Examples 34 and 45(55) are also useful as anxiety relieving means. This property was investigated on the basis of the secondary response avoidance test, which was performed as described by G. Maffii, Journ. Pharm. Pharmacol., 11, 192, 1959.

[6] = mice, dose reducing score to 50% of controls

Compound	ED50 [1]	LD50 ([2]; mice, read-out: Toxicity LD50)	ED50 [3]	minimal effective dose ([4]; mice, complete hypnosis)	antianxiety effect [5]	ED50 [1, 6]	LD50 [2]	ED50 [3, 6]	minimal effective dose [4]
Cn1nc(-c2cccc(F)c2)nc1-c1ccccc1CO [Example 5]	30 mg/kg	400 mg/kg	50 mg/kg	150 mg/kg					
Cc1ccccc1-c1nc(-c2cccc(N)c2)nn1C [Example 34, 1-Methyl-3-(3-aminophenyl)-5-(o-tolyl)-1,2,4-triazole]	30 mg/kg	200 mg/kg	20 mg/kg	60 mg/kg	remarkable antianxiety effect				
Cc1cccc(-c2nc(-c3ccccc3C)n(C)n2)c1 [32(56), 1-Methyl-3-(m-tolyl)-5-(o-tolyl)-1,2,4-triazole]	30 mg/kg	> 1000 mg/kg	20 mg/kg	200 mg/kg					
Cc1ccccc1-c1nc(-c2cccc(Cl)c2)nn1C [45(55), 1-Methyl-3-(3-chlorophenyl)-5-(o-tolyl)-1,2,4-triazole]	30 mg/kg	700 mg/kg	50 mg/kg	300 mg/kg	remarkable antianxiety effect				
Cc1cccc(-c2nc(-c3ccccc3CO)n(C)n2)c1 [Example 7]				80 mg/kg		30 mg/kg	500 mg/kg	20 mg/kg	
Cn1nc(-c2ccccc2Cl)nc1-c1ccccc1CO [Example 2]	60 mg/kg	500 mg/kg	60 mg/kg	300 mg/kg					
Cn1nc(-c2ccc3c(c2)OCO3)nc1-c1ccccc1CO [Example 14]				300 mg/kg		80 mg/kg	> 1000 mg/kg	80 mg/kg	
Cn1nc(-c2cccc([N+](=O)[O-])c2)nc1-c1ccccc1CO [Example 10, 1-methyl-3-(3-nitrophenyl)-5-(2-hydroxymethylphenyl)-1,2,4-triazole]		1000 mg/kg		300 mg/kg		60 mg/kg		40 mg/kg	
Cc1ccc(-c2nc(-c3ccccc3CO)n(C)n2)cc1 [Example 8]				600 mg/kg		80 mg/kg	> 1000 mg/kg	100 mg/kg	
Cc1ccccc1-c1nc(-c2ccccc2CO)n(C)n1 [Example 6, 1-methyl-3-(o-tolyl)-5-(2-hydroxymethylphenyl)-1,2,4-triazole]	50 mg/kg	1000 mg/kg	25 mg/kg	600 mg/kg					
Cn1nc(-c2ccccc2)nc1-c1ccccc1 [Compound A, 1-methyl-3,5-diphenyl-1,2,4-triazole, reference compound]	> 100 mg/kg	1000 mg/kg	300 mg/kg						> 1000 mg/kg
COc1cccc(-c2nc(-c3ccccc3C)n(C)n2)c1 [Example 35, 1-Methyl-3-(3-methoxyphenyl)-5-(o-tolyl)-1,2,4-triazole]	60 mg/kg	1000 mg/kg	50 mg/kg	300 mg/kg					
Cn1nc(-c2cccc(Cl)c2)nc1-c1ccccc1CO [Example 3]	30 mg/kg	500 mg/kg	10 mg/kg	200 mg/kg					
Cn1nc(-c2ccccc2)nc1-c1ccc(Cl)cc1 [Compound B, 1-methyl-3-phenyl-5-(p-chlorophenyl)-1,2,4-triazole, reference compound]		> 1000 mg/kg		> 600 mg/kg		> 300 mg/kg		> 300 mg/kg	
COc1cccc(-c2nc(-c3ccccc3CO)n(C)n2)c1 [Example 9]				300 mg/kg		60 mg/kg	1000 mg/kg	60 mg/kg	
Cn1nc(-c2ccccc2)nc1-c1ccccc1CO [Example 1, 5-(2-Hydroxymethylphenyl)-1-methyl-3-phenyl-1,2,4-triazole]		1000 mg/kg		300 mg/kg		60 mg/kg		100 mg/kg	
Cc1ccccc1-c1nc(-c2ccccc2)nn1C [31(42), 1-Methyl-5-(o-tolyl)-3-phenyl-1,2,4-triazole]	60 mg/kg	> 1000 mg/kg	50 mg/kg	300 mg/kg					

— patent publication US4119635A, “Substituted 1,2,4-triazole derivatives” (Gruppo Lepetit S.p.A., priority 1971, dated 1978)
